Data set [1] deals with HepG2. As to the kind of experiment: Growth inhibition of human HepG2 cells after 24 hrs by MTT assay. It is filed as functional, cell-based. Particulars: HepG2, 24 h.
In data set [2] the test system is L02. The data set can be described thus: Induction of NO generation in human HL-7702 cells assessed as nitrite levels at 0.66 uM after 48 hrs by Griess assay (reference value: 11.6 +/- 1.1 uM). Type of data set: functional. (In general: The Griess reaction detects nitrite, a stable product of nitric oxide.)
Data set [3] deals with L02. The data set can be described thus: Induction of NO generation in human HL-7702 cells assessed as nitrite levels at 0.66 uM after 1 hr by Griess assay (reference value: 11.6 +/- 1.1 uM). Type of data set: functional.
The test system of data set [4] is HepG2. As to the kind of experiment: Induction of NO generation in human HepG2 cells assessed as nitrite levels at 0.33 uM after 3 hrs by Griess assay (reference value: 12.8 +/- 1.5 uM). It is filed as functional.
Data set [5] relates to HepG2. The data set can be described thus: Induction of apoptosis in human HepG2 cells assessed as increase in cleaved PARP level up to 0.66 uM after 24 hrs by Western blot analysis. Type of data set: functional, cell-based. A general note: Immunoblotting shows a protein as a band on a membrane.
Data set [6] has as its system HepG2. The data set can be described thus: Induction of NO generation in human HepG2 cells assessed as nitrite levels at 0.66 uM after 3 hrs by Griess assay (reference value: 12.8 +/- 1.5 uM). It is filed as functional.
The test system of data set [7] is HepG2. As to the kind of experiment: Induction of apoptosis in human HepG2 cells at 0.16 uM after 24 hrs by Annexin-V/propidium iodide staining-based flow cytometric analysis. Type of data set: functional. Background: Flow cytometry measures light scatter and fluorescence of single cells or particles in a stream.
Data set [8] is described as follows: Selectivity index, ratio of IC50 for human HL-7702 cells to IC50 for human HepG2 cells. It is filed as toxicity. Particulars: HL-7702 cells versus HepG2 cells, read-out: Ratio IC50.
Data set [9] deals with HepG2. The data set can be described thus: Induction of NO generation in human HepG2 cells assessed as nitrite levels at 0.33 uM after 60 hrs by Griess assay (reference value: 12.8 +/- 1.5 uM). Type of data set: functional.
Data set [10] deals with HepG2. The data set can be described thus: Cell cycle arrest in human HepG2 cells assessed as accumulation at S phase at 0.66 uM after 24 hrs by propidium iodide/RNAse staining-based flow cytometric analysis relative to control. It is filed as functional.
The subject of another data set is MDA-MB-231. As to the kind of experiment: Growth inhibition of human MDA-MB-231 cells after 24 hrs by MTT assay. It is filed as functional, cell-based. Conditions: MDA-MB-231, 24 h.
Data set [11] relates to HepG2. The data set can be described thus: Induction of NO generation in human HepG2 cells assessed as nitrite levels at 0.33 uM after 12 hrs by Griess assay (reference value: 12.7 +/- 1.8 uM). It is filed as functional.
The subject of data set [12] is HepG2. The data set can be described thus: Induction of NO generation in human HepG2 cells assessed as nitrite levels at 0.16 uM after 24 hrs by Griess assay (reference value: 12.8 +/- 1.7 uM). It is filed as functional.
In data set [13] the test system is HepG2. The data set can be described thus: Induction of NO generation in human HepG2 cells assessed as nitrite levels at 0.16 uM after 12 hrs by Griess assay (reference value: 12.7 +/- 1.8 uM). It is filed as functional.
Data set [14] has as its system L02. As to the kind of experiment: Induction of NO generation in human HL-7702 cells assessed as nitrite levels at 0.66 uM after 3 hrs by Griess assay (reference value: 11.6 +/- 1.2 uM). Type of data set: functional.
Data set [15] deals with HepG2. As to the kind of experiment: Induction of NO generation in human HepG2 cells assessed as nitrite levels at 0.16 uM after 1 hr by Griess assay (reference value: 12.9 +/- 1.5 uM). Type of data set: functional.

As to `COc1cccc2oc3cc(OCCCCCO[N+](=O)[O-])cc(O)c3c(=O)c12`, the results for the IC50 with HepG2 [1] and in the data set on MDA-MB-231 were 330 nM and 570 nM, respectively. Further, the Activity in the data set on L02 [2] was 16.2 µM; in the data set with L02 [3] it was 14.2 µM; in the data set on HepG2 [4], 23.2 µM; in the data set with HepG2 [5], “Dose-dependent effect”; in the data set on HepG2 [6], 25.7 µM; with HepG2 [7], 4.6%. For the same compound, the Activity with HepG2 [9] came out at 18.2 µM; in the data set with HepG2 [10], 93.1%; with HepG2 [11] it was 31.5 µM; in the data set with HepG2 [12], 26.2 µM; in the data set on HepG2 [13], 25.7 µM; in the data set with L02 [14] it was 15.1 µM. Besides, the Activity in the data set with HepG2 [15] is 15.6 µM. The selectivity ratio in data set [8] turned out to be 1140.

One may read the IC50 as the point on the concentration scale where inhibition reaches its midpoint.

These data come from ChEMBL document CHEMBL4152189, “Incorporation of nitric oxide donor into 1,3-dioxyxanthones leads to synergistic anticancer activity” (Eur J Med Chem, 2018).
